The record followed here is patent US20210070735A1, “RIP1 INHIBITORY COMPOUNDS AND METHODS FOR MAKING AND USING THE SAME” (Rigel Pharmaceuticals, Inc., priority 2019, published 2021).

One assay concerns the target T1, human RIP1 (Homo sapiens, UniProt Q13546).
T1 construct: U937 and L929 cells were obtained from the American Type Culture Collection; host or cells: U937
T1 sequence (Q13546 1-671): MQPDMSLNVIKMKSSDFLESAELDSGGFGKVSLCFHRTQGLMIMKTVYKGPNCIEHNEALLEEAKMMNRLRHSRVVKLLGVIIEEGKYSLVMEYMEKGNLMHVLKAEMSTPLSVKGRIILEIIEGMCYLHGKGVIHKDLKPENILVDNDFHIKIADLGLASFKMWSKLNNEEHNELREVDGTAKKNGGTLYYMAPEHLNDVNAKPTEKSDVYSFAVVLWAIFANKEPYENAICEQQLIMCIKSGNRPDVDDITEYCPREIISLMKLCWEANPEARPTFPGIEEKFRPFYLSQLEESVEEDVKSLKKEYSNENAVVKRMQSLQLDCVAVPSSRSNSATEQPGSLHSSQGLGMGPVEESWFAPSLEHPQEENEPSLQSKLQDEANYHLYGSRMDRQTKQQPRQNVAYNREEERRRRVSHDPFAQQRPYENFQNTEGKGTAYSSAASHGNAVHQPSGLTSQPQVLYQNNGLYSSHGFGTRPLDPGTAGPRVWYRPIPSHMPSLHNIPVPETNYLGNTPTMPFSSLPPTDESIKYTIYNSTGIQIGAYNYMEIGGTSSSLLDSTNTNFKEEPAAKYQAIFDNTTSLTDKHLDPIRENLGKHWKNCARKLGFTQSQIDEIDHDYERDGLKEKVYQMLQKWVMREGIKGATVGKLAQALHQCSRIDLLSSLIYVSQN
Description: U937 cell necroptosis assay (TNFa + zVAD, CellTiter-Glo). Type of assay: cell-based. Particulars: U937 Zvad TNF CTG Recovery, U937 cells, TNFa 2 ng/mL + zVAD-fmk, 18 hours. The protocol:
(§1) In this example, U937 and L929 cells were exposed to compounds of the present disclosure and a cell necroptosis assay was conducted to evaluate the compounds' activity against human RIP1 and murine RIP1.
(§2) U937 and L929 cells were obtained from the American Type Culture Collection (Manassa, Va., USA). Both cells were maintained in logarithmic growth phase in complete RPMI 1640 media (Sigma, ST Louis, Mo., USA) supplemented with 10% fetal bovine serum (Sigma, ST Louis, Mo., USA) at 37° C. with 5% CO2. For necroptosis assay, L929 cells were plated for 18 h in 100 µL/well medium at 10K cells/well in Costar 96-well black clear-bottom plates (Fisher Scientific, Hampton, N.H., USA); U937 cells were plated on the day of the assay in 50 µL/well medium containing 60 uM zVAD-fmk (Lonza, Basel, Switzerland) at 50K cells/well. Medium from L929 cells were removed from the 96-well plates and replaced with 50 µL/well new medium containing 40 uM zVAD-fmk. Each compound of the present disclosure evaluated in this example was serially diluted in DMSO from 2.5 mM in 4-fold dilutions, and then diluted 1:125 in complete medium. 50 µL/well 2× of the compound was then added to the cells in the plates. The cells were pre-incubated with the compound for 1 hour at 37° C. with 5% CO2 and before addition of 10 µL/well 11×TNFa (Peprotech, Rocky Hill, N.J., USA) to give a final concentration of 2 ng/mL for TNFa. The relative amount of necroptosis cells was determined by luminescent using a Wallac Victor2 Luminometer (PerkinElmer, Waltham, Mass., USA) and a CellTiter-Glo® Luminescent Cell Viability Reagent Assay (Promega, Madison, Wis., USA) added per manufacturer instructions after 18 hours of TNFa stimulation at 37° C. with 5% CO2.Results from this example are summarized in Table 2. This example establishes that embodiments of the compounds described herein have unexpectedly potent activity against human RIP1 and murine RIP1, which allows their assessment in in vivo mouse models of disease.
On the technique in general: In ATP-based viability assays light output follows the ATP content of the culture.

The next assay has as its target T2, RIPK1 (Homo sapiens, UniProt Q13546).
T2 sequence (Q13546 1-671): T1 sequence (Q13546 1-671)
Description: RIPK1 ADP-Glo biochemical kinase assay. Conditions: 30 min at 30° C. The protocol: The final reaction volume was 5.0 μl.
Adding 5 μl of ADP-Glo™ terminated the reaction.
(In general: In ADP-Glo the light output rises with the ADP produced.)

In the next assay the target is T3, murine RIP1 (Mus musculus, UniProt Q60855).
T3 construct: U937 and L929 cells were obtained from the American Type Culture Collection; host or cells: L929
T3 sequence (Q60855 1-656): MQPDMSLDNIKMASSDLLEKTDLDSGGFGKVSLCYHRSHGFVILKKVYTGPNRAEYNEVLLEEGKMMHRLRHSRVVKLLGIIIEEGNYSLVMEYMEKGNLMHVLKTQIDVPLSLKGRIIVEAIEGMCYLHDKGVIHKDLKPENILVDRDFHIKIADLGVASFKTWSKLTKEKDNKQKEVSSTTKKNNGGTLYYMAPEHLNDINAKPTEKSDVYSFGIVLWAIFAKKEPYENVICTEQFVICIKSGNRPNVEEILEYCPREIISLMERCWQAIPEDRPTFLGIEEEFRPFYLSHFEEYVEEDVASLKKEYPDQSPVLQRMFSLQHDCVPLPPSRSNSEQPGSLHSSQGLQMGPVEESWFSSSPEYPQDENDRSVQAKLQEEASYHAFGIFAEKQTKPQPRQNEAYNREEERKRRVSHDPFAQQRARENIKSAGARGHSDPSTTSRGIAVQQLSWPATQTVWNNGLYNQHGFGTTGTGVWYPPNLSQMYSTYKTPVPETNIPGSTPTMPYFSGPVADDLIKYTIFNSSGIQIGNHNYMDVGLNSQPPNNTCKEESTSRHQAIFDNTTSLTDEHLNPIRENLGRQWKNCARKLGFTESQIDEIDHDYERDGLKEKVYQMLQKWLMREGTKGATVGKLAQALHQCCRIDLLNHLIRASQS
Kind of assay: L929 cell necroptosis assay (TNFa + zVAD, CellTiter-Glo). In kind it is cell-based. The protocol:
as §1, §2

For the molecule `[2H]C([2H])([2H])N1C(=O)C(NC(=O)c2n[nH]c(Cc3ccccc3)n2)CCc2ccc(N3CC4(CCOCC4)C3)cc21` (racemic) [Compound I-15, (±)-5-Benzyl-N-(1-(methyl-d3)-2-oxo-8-(7-oxa-2-azaspiro[3.5]nonan-2-yl)-2,3,4,5-tetrahydro-1H-benzo[b]azepin-3-yl)-1H-1,2,4-triazole-3-carboxamide], the IC50 (as a rule, the midpoint of a concentration-inhibition curve) on human RIP1 was determined as 0.0079 µM; against RIPK1, 0.106 µM; at murine RIP1 it was 0.257 µM.
The corresponding values for `CN1C(=O)C(NC(=O)c2n[nH]c(Cc3ccccc3)n2)CCc2ccc(C#CC3(O)COC3)cc21` (racemic) [Compound I-16, (±)-5-Benzyl-N-(8-((3-hydroxyoxetan-3-yl)ethynyl)-1-methyl-2-oxo-2,3,4,5-tetrahydro-1H-benzo[b]azepin-3-yl)-1H-1,2,4-triazole-3-carboxamide] are 0.0084 µM, 0.229 µM and 0.15 µM.
For `CN1C(=O)C(NC(=O)c2n[nH]c(Cc3ccccc3)n2)CCc2ccc(C#Cc3ccncc3)cc21` (racemic) [Compound I-19, (±)-5-Benzyl-N-(1-methyl-2-oxo-8-(pyridin-4-ylethynyl)-2,3,4,5-tetrahydro-1H-benzo[b]azepin-3-yl)-1H-1,2,4-triazole-3-carboxamide], the IC50 worked out at 0.0034 µM on human RIP1, 0.0427 µM at RIPK1 and 0.01 µM at murine RIP1.
`CN1C(=O)C(NC(=O)c2n[nH]c(Cc3ccccc3)n2)CCc2ccc(C#Cc3ccccn3)cc21` (racemic) [Compound I-20, (±)-5-Benzyl-N-(1-methyl-2-oxo-8-(pyridin-2-ylethynyl)-2,3,4,5-tetrahydro-1H-benzo[b]azepin-3-yl)-1H-1,2,4-triazole-3-carboxamide]: the IC50 at human RIP1 turned out to be 0.0038 µM; on RIPK1, 0.037 µM; on murine RIP1, 0.0085 µM.
In the case of `CN1C(=O)C(NC(=O)n2cc(Cc3ccccc3)cn2)CCc2ccc(N3CC4(CCOCC4)C3)cc21` (racemic) [Compound I-23, (±)-4-Benzyl-N-(1-methyl-2-oxo-8-(7-oxa-2-azaspiro[3.5]nonan-2-yl)-2,3,4,5-tetrahydro-1H-benzo[b]azepin-3-yl)-1H-pyrazole-1-carboxamide], the IC50 on human RIP1 was 0.0017 µM; at RIPK1, 0.0612 µM; at murine RIP1 it was 0.212 µM.
For `CN1C(=O)C(NC(=O)c2cc(Oc3ccccc3)ccn2)CCc2ccc(C#CC(C)(C)O)cc21` (racemic) [Compound I-24, (±)-N-(8-(3-Hydroxy-3-methylbut-1-yn-1-yl)-1-methyl-2-oxo-2,3,4,5-tetrahydro-1H-benzo[b]azepin-3-yl)-4-phenoxypicolinamide], the IC50 at human RIP1 stood at 0.0019 µM; at RIPK1, 0.0581 µM; at murine RIP1, 0.013 µM.
For `CN1C(=O)C(NC(=O)c2cc(Oc3ccccc3)ccn2)CCc2ccc(CN3CCN(c4ccncc4)CC3)cc21` (racemic) [Compound I-25, (±)-N-(1-Methyl-2-oxo-8-((4-(pyridin-4-yl)piperazin-1-yl)methyl)-2,3,4,5-tetrahydro-1H-benzo[b]azepin-3-yl)-4-phenoxypicolinamide], the IC50 on human RIP1 turned out to be 0.278 µM; against RIPK1, 0.0689 µM; at murine RIP1, 37.1 µM.
The corresponding values for `CN1C(=O)C(NC(=O)c2cc(Oc3ccccc3)ccn2)CCc2ccc(N3CCC4(CCOCC4)CC3)cc21` (racemic) [Compound I-27, (±)-N-(1-Methyl-2-oxo-8-(3-oxa-9-azaspiro[5.5]undecan-9-yl)-2,3,4,5-tetrahydro-1H-benzo[b]azepin-3-yl)-4-phenoxypicolinamide] are 0.0048 µM, 0.0464 µM and 0.641 µM.
Turning to `[2H]C([2H])([2H])N1C(=O)C(NC(=O)c2cc(Oc3ccccc3)ccn2)CCc2ccc(C#CC(C)(C)O)cc21` (racemic) [Compound I-28, (±)-N-(8-(3-Hydroxy-3-methylbut-1-yn-1-yl)-1-(methyl-d)-2-oxo-2,3,4,5-tetrahydro-1H-benzo[b]azepin-3-yl)-4-phenoxypicolinamide], the IC50 at human RIP1 is 0.0024 µM; on RIPK1, 0.0322 µM; at murine RIP1, 0.0209 µM.
